In paper PMC13534789, “Molecular Glue Degraders Enhance CAPRIN1‐Dependent Lysosomal Degradation of APP and Reduce Amyloid β in Alzheimer's Disease” (Advanced Science, 2026):

What was measured:
APP = APP (Homo sapiens, UniProt P05067); test: Western blot of APP in HEK-APP695WT cells; type: cell-based; set-up: expressed in transfected cells; conditions: 72 h
APP mRNA = test: qRT-PCR of APP mRNA; type: cell-based, human; conditions: 72 h
Procedure: Total RNA was isolated using the RNeasy kit (Qiagen), followed by synthesis for cDNA with a reverse transcription reaction (Quantitect Reverse Transcription kit). The sequences for APP and GAPDH are in Table S1. Quantitative PCR was performed on QuantStudio 6 Flex (Applied Biosystems). The expression levels of APP were normalized to the GAPDH mRNA levels and represented relative to the expression in control cells. The results were analyzed with the delta‐delta‐Ct methods. Ct values were calculated using QuantStudio Design & Analysis Software, and relative expression levels were analyzed with GraphPad Prism.

CAPRIN1–APP interaction = CAPRIN1–APP interaction (Homo sapiens, UniProt P05067+Q14444); test: In vitro binding assay, recombinant CAPRIN1 and APP (reciprocal co-IP); set-up: recombinant human CAPRIN1 (full length, 100 ng) was added; purchased Biolegend; conditions: concentration-dependent
Procedure: When CAPRIN1 was used as a bait, recombinant CAPRIN1 (200 ng) was mixed with anti‐CAPRIN1 antibodies (1 µg) in IP buffer (25 mM Tris, 150 mM NaCl, 5% Glycerol, and 1% Triton X‐100 at pH 7.4) overnight at 4°C, followed by the addition of Protein‐G agarose beads for 4 h at 4°C. CAPRIN1 conjugated beads were then washed with binding buffer (20 mM HEPES, 100 mM NaCl, 0.01% Triron X‐100, and 5% Glycerol at pH 7.25) before the addition of recombinant human APP (prey) for 1 h at 4°C. Beads were washed and eluted with Laemmli buffer with boiling, followed by Western blotting. When APP was used as a bait, biotin‐conjugated APP antibody (1 µg; 4G8, Biolegend) was pre‐mixed with recombinant APP (100 ng, Biolegend) in pulldown buffer (0.1% NP‐40, 50 mM Tris, 150 mM NaCl, 0.2 mM EDTA, 100 mM KCl, 1 mM MgCl2, 0.2 mM CaCl2, and 10% glycerol) overnight at 4°C, followed by addition of 0.5 mg of Streptavidin magnetic beads (Pierce) for 1 h at 4°C. After washing the beads, recombinant human CAPRIN1 (full length, 100 ng) was added together with dose‐dependent 0043 in the binding buffer for 1 h at 4°C. Beads were washed and eluted with Laemmli buffer with boiling, followed by Western blotting.

5xFAD transgenic mice = test: Amyloid pathology in 5xFAD mice (IHC, Thioflavin S, ELISA); type: in vivo, mouse
From the text: Female 5xFAD transgenic mice (9–10 weeks old) were used to evaluate the efficacy of 0152 in reducing amyloid pathology. Mice were housed under Indiana University standard laboratory conditions. For intraperitoneal (IP) administration, mice received either vehicle or 0152 (indicated concentrations) in a formulation consisting of 20% DMSO, 20% Cremophor EL, and 60% PBS. For oral (PO) administration, mice received either vehicle or 0152 (indicated concentrations) in a formulation consisting of 10% NMP (N‐methyl‐2‐pyrrolidone), 10% PG (Propylene Glycol), 5% Solutol HS‐15, and 75% Captisol (10% w/v in RO water). At the end of the treatment period, mice were sacrificed, and their brains were collected for histological analysis. Brain tissues were fixed in 10% Formalin, embedded in paraffin, and sectioned. Thioflavin S staining was performed to visualize β‐sheet‐rich amyloid plaques, and immunohistochemistry was conducted using the 6E10 monoclonal antibody to detect Aβ plagues. Body weights were recorded daily throughout the study.
iPSC‐Ns or HEK‐APP695WT were treated with drugs, and secreted Aβ42 peptides inculture soup were quantified using the Human Amyloid β1‐42 human ELISA kit (Thermo Fisher) according to the manufacturer's protocol. Mouse brain extraction was performed as previously described, with minor modifications. Mouse brain tissues were homogenized at a 1:10 weight‐to‐volume ratio in Tris‐buffered saline (TBS; 50 mM Tris, pH 7.4, 150 mM NaCl) supplemented with 2 mM EDTA and protease inhibitors. TBS‐homogenized brains were centrifuged for 1 h at 16 000 g. To extract total Aβ, including insoluble fractions, formic acid was added to a final concentration of 70%, and the samples were thoroughly mixed by pipetting. Homogenates were centrifuged at 100 000 g for 1 h at 4°C, and the resulting supernatants were collected. Prior to quantification, formic acid‐containing samples were neutralized with 1 M Tris base (pH 11). Aβ40 and Aβ42 levels were measured using human‐specific ELISA kits (Invitrogen) and normalized to total protein concentrations determined by the BCA assay (Thermo Scientific). For Aβ quantification in 3D organoids, 3D organoids’ processing and ELISA analysis were performed with minor modifications from previously described protocols. Briefly, cerebral organoids were lysed in RIPA buffer supplemented with protease and phosphatase inhibitor cocktails (Sigma), followed by sonication and incubation on ice for 60 min. Lysates were centrifuged at 13 000 rpm for 1 h at 4°C, and the supernatants were collected as the RIPA‐soluble fraction. The remaining pellets were resuspended in 70% formic acid, sonicated, and subsequently neutralized with Tris buffer to obtain the formic acid‐solubilized fraction. Aβ42 levels in both fractions were measured using human‐specific ELISA kits (Thermo Fisher) according to the manufacturer's instructions. Formic acid extracts were appropriately neutralized prior to ELISA. Aβ levels were normalized to total protein concentration determined by BCA assay.
Autopsy samples of brain tissues were provided, and immunohistochemistry was performed in the Department of Pathology and Laboratory Medicine, Indiana University School of Medicine, following the institutional protocols. Paraffin‐embedded 3D organoids and human AD patient brain samples were subjected to Hematoxylin and Eosin (H&E), synapses, GFAP, CAPRIN1 (polyclonal Rabbit anti‐CAPRIN1, 15112‐1‐AP, Proteintech), APP (monoclonal mouse anti‐APP/Aβ (6E10), 803001, Biolegend; MAB348, Millipore Sigma) in a Dako automated instrument using the Dako Flex detection system. The primary antibodies and secondary antibodies were used in colocalization experiments with human AD brain biopsy samples, then imaged using a confocal microscope system. Thioflavin‐S was stained with deparaffinization and rehydration of mouse brain sections using a series of xylene and ethanol washes. […]

[1] = 80 mg/kg IP twice per day, 30 days

APP, sequence (P05067 18-695 isoform P05067-4 limits assumed): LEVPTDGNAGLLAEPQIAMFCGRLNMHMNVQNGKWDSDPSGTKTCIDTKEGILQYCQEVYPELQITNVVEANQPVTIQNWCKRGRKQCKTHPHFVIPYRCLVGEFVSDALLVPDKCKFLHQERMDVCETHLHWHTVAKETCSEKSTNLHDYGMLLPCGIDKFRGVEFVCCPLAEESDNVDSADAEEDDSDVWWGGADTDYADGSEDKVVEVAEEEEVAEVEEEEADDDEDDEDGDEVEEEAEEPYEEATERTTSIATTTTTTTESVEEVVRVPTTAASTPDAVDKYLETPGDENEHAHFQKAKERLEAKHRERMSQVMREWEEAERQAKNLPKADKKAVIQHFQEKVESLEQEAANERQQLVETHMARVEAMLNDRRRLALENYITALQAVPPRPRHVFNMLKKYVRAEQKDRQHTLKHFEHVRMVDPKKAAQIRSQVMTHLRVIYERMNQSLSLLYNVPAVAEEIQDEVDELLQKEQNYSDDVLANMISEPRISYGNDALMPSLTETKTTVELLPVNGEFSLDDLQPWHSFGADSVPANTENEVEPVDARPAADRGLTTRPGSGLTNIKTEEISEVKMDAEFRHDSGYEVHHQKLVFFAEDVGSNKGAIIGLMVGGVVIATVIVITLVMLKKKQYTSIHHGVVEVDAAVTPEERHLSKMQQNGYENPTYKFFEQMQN
CAPRIN1–APP interaction, sequence (Q14444 whole entry): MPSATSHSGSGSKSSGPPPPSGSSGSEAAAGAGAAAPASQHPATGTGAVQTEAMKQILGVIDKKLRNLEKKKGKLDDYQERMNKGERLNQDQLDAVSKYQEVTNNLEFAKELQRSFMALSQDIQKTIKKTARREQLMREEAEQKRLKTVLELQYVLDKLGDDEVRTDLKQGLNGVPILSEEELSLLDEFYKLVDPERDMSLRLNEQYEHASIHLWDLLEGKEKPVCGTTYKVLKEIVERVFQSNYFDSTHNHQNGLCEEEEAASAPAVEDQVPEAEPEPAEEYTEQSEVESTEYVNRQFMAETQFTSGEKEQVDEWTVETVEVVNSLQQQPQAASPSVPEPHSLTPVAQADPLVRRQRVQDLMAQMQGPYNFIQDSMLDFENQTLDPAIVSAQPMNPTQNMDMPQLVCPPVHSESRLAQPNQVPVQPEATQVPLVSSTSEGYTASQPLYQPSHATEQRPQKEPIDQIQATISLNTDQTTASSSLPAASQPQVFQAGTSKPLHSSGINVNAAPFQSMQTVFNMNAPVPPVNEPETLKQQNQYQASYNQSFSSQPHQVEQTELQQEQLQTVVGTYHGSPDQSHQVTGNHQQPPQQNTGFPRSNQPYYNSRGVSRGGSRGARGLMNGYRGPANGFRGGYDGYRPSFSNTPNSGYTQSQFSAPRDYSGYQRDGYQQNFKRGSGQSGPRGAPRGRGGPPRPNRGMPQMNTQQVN
CAPRIN1–APP interaction, sequence (P05067 18-770): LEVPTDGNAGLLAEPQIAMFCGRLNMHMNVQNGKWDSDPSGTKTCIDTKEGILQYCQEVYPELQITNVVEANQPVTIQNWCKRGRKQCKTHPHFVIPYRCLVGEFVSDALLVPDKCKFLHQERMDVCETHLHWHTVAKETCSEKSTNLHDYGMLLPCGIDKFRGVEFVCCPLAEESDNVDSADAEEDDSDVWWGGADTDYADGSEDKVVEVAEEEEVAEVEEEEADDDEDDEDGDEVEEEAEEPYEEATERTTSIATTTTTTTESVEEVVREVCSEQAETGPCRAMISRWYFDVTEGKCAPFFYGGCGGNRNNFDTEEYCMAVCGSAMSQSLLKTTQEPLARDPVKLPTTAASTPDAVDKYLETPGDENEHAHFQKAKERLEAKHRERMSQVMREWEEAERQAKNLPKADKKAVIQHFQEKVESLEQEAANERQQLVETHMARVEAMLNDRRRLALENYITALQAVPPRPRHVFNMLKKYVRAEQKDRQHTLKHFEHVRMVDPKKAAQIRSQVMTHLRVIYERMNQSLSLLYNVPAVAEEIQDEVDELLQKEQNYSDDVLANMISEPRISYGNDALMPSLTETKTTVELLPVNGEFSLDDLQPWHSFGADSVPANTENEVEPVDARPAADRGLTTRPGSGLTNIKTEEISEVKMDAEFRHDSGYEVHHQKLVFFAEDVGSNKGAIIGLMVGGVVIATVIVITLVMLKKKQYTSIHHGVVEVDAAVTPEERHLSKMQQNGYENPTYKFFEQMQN

| Structure (SMILES) | Intracellular APP (western blot) (APP; HEK-APP695WT cells, increasing concentrations) | Effects on APP and Aβ42 in CAPRIN1 KO cells (APP; sgCAPRIN1 HEK-APP695WT cells, 10 µM) | APP mRNA expression (qRT-PCR) (APP mRNA; AD iPSC-Ns) | APP mRNA (qRT-PCR) (APP mRNA; HEK-APP695WT cells) | Interaction of recombinant CAPRIN1 and APP (reciprocal co-IP) (CAPRIN1–APP interaction) | APP/Aβ-positive areas and plaque sizes in subiculum and hippocampus, plaque sizes in cortex (IHC) (5xFAD transgenic mice; [1]) | Fibrillar Aβ plaques in subiculum (Thioflavin S) (5xFAD transgenic mice; [1]) | APP/Aβ-positive areas and plaque sizes in subiculum (IHC, Thioflavin S) (5xFAD transgenic mice; 80 mg/kg oral gavage twice daily, 30 days) | APP/Aβ-positive area and amyloid plaque size, hippocampus and subiculum (IHC) (5xFAD transgenic mice; 100 mg/kg IP daily, 24 days) | Aβ40 and Aβ42 levels in hemispheric brain lysates (ELISA) (5xFAD transgenic mice; 100 mg/kg IP daily, 24 days) | Fibrillar Aβ plaques in subiculum (Thioflavin S) (5xFAD transgenic mice; 100 mg/kg IP daily, 24 days) | Plaque burden in cortex (IHC) (5xFAD transgenic mice; 100 mg/kg IP daily, 24 days) |
| --- | --- | --- | --- | --- | --- | --- | --- | --- | --- | --- | --- | --- |
| N#Cc1cccc(NC(=O)Nc2nc3ccc(C(=O)N4CCOCC4)cc3s2)c1 [compound 0043] | reduced intracellular APP | abolished | nor did it alter APP mRNA expression | no significant changes | enhanced the interaction between CAPRIN1 and APP | – | – | – | – | – | – | – |
| COc1cccc(NC(=O)Nc2nc3ccc(C(=O)N4CCOCC4)cc3s2)c1 [compound 0152] | – | – | – | – | – | significantly reduced | drastically reduced fibrillar Aβ plaques | significant reduction | significant reductions | marked decreases | reduced fibrillar Aβ plaques | minimal changes |
